Measurements reported in patent US10870647B2, “Imidazopyridine derivative, method for preparing same, and pharmaceutical composition containing same as active ingredient for preventing or treating cancer” (DAEGU-GYEONGBUK MEDICAL INNOVATION FOUNDATION, priority 2016, dated 2020).

Assays:
Assay in all cases: Kinase selectivity, scanMAX Kinase assay panel (DiscoverX), % control at 1 uM
Type in all cases: binding
[1] = biological target: T1, scanMAX Kinase assay panel (Homo sapiens, UniProt O76039); details: CDKL5; 1 uM; read-out: Percent Control (%)
T1 construct: purchased DiscoverX
T1 sequence (O76039 1-960): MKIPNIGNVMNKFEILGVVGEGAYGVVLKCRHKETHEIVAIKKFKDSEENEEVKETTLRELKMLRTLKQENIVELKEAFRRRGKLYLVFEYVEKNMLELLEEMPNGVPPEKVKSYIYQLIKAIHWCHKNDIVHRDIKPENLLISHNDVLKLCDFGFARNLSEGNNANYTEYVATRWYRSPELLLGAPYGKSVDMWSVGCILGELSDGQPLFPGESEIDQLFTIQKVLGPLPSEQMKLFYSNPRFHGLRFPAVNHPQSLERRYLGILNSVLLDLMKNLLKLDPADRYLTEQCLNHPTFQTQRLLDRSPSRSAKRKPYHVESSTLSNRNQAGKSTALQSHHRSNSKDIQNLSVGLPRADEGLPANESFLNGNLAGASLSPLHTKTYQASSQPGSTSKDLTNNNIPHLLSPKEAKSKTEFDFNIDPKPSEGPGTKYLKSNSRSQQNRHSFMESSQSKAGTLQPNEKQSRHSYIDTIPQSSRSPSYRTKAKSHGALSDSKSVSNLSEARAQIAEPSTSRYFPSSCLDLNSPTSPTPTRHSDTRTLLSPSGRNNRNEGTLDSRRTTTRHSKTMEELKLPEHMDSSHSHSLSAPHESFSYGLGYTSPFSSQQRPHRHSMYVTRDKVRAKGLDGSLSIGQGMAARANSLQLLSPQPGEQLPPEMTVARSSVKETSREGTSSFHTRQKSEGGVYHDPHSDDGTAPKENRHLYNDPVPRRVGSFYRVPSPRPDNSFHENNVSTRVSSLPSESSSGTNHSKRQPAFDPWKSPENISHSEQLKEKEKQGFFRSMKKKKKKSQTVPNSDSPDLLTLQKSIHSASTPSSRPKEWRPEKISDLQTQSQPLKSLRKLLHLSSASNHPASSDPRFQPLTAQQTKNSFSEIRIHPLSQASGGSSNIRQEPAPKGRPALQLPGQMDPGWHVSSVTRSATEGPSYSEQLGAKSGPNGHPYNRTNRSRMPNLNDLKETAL
Method in brief: (§1)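 Each kinase was first exposed to the test compound at 1 uM in DMSO. Signal was then normalised to positive and negative controls to give % control. Finally, any enzyme showing <35% control was judged inhibited.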

[2] = biological target: T2, scanMAX Kinase assay panel (Homo sapiens, UniProt Q12866); details: MERTK; 1 uM; read-out: Percent Control (%)
T2 construct: purchased DiscoverX
T2 sequence (Q12866 21-999): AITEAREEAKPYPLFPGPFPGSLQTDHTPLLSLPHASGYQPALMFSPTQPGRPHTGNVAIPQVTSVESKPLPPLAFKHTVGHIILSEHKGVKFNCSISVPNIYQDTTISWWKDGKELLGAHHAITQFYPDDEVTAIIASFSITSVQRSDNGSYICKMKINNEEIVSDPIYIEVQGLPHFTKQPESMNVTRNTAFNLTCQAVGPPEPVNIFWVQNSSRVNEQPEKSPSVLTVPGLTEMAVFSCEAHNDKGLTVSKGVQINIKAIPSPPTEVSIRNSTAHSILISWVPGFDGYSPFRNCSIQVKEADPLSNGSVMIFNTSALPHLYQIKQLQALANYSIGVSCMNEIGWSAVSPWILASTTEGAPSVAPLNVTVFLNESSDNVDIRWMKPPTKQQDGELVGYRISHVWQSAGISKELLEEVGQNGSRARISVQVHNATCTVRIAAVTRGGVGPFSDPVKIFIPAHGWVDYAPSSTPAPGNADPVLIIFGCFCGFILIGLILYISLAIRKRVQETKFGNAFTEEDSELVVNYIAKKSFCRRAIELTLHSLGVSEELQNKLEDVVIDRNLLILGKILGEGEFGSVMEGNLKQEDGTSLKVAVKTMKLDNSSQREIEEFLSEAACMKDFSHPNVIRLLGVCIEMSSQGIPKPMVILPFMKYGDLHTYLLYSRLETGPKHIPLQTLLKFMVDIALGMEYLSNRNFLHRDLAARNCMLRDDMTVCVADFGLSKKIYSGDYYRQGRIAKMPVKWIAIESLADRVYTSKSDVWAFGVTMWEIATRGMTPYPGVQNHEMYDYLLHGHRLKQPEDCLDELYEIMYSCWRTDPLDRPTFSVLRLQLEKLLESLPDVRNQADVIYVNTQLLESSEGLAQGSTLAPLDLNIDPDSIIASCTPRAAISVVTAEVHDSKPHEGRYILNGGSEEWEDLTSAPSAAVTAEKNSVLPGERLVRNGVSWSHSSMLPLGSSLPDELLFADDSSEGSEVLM
Method in brief: as §1

[3] = biological target: T3, scanMAX Kinase assay panel (Homo sapiens, UniProt P49841); details: GSK3B; 1 uM; read-out: Percent Control (%)
T3 construct: purchased DiscoverX
T3 sequence (P49841 whole entry): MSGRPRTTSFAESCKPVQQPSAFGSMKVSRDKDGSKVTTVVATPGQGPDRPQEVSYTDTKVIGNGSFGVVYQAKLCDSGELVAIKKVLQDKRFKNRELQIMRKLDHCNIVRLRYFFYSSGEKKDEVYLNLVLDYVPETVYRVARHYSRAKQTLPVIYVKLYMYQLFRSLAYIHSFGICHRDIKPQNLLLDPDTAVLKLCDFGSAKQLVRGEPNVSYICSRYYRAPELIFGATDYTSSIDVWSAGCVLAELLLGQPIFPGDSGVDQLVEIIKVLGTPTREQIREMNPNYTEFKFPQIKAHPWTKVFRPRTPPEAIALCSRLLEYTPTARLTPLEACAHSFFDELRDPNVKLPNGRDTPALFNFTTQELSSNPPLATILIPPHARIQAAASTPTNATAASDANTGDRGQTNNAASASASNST
Method in brief: as §1

[4] = biological target: T4, scanMAX Kinase assay panel (Homo sapiens, UniProt Q13163); details: MEK5; 1 uM; read-out: Percent Control (%)
T4 construct: purchased DiscoverX
T4 sequence (Q13163 1-448): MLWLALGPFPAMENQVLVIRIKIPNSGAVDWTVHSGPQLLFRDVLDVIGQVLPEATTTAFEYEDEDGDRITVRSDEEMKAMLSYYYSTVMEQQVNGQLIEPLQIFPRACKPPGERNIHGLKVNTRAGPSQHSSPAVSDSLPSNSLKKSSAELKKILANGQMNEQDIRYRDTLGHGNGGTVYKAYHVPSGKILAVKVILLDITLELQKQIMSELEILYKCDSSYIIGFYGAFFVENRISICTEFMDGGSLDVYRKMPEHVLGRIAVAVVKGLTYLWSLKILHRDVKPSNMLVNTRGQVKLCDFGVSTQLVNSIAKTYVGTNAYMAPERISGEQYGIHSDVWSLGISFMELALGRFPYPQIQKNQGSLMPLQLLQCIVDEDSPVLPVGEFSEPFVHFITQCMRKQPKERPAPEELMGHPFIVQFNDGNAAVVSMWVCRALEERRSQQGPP
Method in brief: as §1

[5] = biological target: T5, scanMAX Kinase assay panel (Homo sapiens, UniProt Q9HCP0); details: CSNK1G1; 1 uM; read-out: Percent Control (%)
T5 construct: purchased DiscoverX
T5 sequence (Q9HCP0 whole entry): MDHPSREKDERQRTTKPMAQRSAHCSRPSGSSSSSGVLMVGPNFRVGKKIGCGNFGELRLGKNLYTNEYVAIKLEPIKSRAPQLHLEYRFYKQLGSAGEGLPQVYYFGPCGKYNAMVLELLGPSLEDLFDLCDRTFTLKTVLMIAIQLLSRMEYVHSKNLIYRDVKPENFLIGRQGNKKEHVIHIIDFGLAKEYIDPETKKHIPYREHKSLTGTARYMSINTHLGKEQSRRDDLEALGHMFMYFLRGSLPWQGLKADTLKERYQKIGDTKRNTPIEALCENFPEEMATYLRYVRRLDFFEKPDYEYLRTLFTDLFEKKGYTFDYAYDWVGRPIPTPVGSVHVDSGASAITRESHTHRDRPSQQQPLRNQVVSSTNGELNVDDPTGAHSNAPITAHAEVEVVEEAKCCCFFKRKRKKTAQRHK
Method in brief: as §1

[6] = biological target: T6, scanMAX Kinase assay panel (Homo sapiens, UniProt Q13233); details: MAP3K1; 1 uM; read-out: Percent Control (%)
T6 construct: purchased DiscoverX
T6 sequence (Q13233 whole entry): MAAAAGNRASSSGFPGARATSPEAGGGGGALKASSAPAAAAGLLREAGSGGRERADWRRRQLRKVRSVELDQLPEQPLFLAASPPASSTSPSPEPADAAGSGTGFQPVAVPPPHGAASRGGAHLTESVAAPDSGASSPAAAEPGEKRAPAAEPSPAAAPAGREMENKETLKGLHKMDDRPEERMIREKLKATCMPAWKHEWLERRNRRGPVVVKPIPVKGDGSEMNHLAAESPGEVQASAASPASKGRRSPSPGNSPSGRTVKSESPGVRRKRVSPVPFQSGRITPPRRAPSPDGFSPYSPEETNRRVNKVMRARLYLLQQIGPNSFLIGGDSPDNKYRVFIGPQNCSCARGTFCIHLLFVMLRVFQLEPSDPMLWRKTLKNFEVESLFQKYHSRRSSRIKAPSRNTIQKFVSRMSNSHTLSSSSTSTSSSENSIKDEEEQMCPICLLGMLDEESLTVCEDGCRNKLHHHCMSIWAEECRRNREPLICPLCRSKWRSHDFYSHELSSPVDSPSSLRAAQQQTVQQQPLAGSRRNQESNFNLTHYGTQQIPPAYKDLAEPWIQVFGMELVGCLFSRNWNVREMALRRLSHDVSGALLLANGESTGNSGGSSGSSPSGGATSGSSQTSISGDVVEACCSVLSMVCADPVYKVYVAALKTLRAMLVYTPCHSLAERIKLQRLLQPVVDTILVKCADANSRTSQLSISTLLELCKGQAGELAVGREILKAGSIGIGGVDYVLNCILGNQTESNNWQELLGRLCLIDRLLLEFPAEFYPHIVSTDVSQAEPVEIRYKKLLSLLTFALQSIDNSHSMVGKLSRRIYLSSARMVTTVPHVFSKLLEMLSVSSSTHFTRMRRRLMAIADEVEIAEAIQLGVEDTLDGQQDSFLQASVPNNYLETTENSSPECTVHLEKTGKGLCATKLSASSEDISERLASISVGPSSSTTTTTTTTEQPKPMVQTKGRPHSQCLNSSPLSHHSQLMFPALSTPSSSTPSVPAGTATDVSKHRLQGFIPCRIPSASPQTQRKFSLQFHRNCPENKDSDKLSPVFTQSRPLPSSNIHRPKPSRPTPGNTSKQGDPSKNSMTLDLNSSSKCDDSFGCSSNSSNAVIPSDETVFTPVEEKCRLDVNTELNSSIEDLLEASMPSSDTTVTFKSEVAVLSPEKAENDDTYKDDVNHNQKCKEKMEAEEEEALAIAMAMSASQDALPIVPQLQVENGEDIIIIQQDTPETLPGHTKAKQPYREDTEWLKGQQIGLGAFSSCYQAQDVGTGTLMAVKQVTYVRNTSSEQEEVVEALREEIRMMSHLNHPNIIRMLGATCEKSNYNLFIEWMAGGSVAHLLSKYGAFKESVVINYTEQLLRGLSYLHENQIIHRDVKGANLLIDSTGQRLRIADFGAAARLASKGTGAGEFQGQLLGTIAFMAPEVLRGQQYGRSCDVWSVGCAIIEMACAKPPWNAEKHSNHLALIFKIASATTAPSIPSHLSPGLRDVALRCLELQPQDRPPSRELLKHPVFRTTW
Method in brief: as §1

Structure (SMILES): Cc1ccc(C(=O)Nc2ccc(CN3CCN(C)CC3)c(C(F)(F)F)c2)cc1C#Cc1cnc2c(Nc3cnn(C)c3)cccn12 [Example 1, 4-methyl-3-((8-((1-methyl-1H-pyrazol-4-yl)amino)imidazo[1,2-a]pyridin-3-yl)ethynyl)-N-(4-((4-methylpiperazin-1-yl)methyl)-3-(trifluoromethyl)phenyl)benzamide]
- remaining binding at 1 µM [1]: 94%
- remaining binding at 1 µM [2]: 0%
- remaining binding at 1 µM [3]: 79%
- remaining binding at 1 µM [4]: 1%
- remaining binding at 1 µM [5]: 73%
- remaining binding at 1 µM [6]: 44%

Structure (SMILES): Cc1cn(-c2cc(NC(=O)c3ccc(C)c(C#Cc4cnc5c(Nc6cnn(C)c6)cccn45)c3)cc(C(F)(F)F)c2)cn1 [Example 12, 4-methyl-N-(3-(4-methyl-1H-imidazol-1-yl)-5-(trifluoromethyl)phenyl)-3-((8-((1-methyl-1H-pyrazol-4-yl)amino)imidazo[1,2-a]pyridin-3-yl)ethynyl)benzamide]
- remaining binding at 1 µM [1]: 100%
- remaining binding at 1 µM [2]: 3%
- remaining binding at 1 µM [3]: 85%
- remaining binding at 1 µM [4]: 1%
- remaining binding at 1 µM [5]: 95%
- remaining binding at 1 µM [6]: 67%

Structure (SMILES): Cc1ccc(NC(=O)C2(C(=O)Nc3ccc(F)cc3)CC2)cc1C#Cc1cnc2c(Nc3cnn(C(C)C)c3)cccn12 [Example 78]
- remaining binding at 1 µM [1]: 92%
- remaining binding at 1 µM [2]: 100%
- remaining binding at 1 µM [3]: 96%
- remaining binding at 1 µM [4]: 21%
- remaining binding at 1 µM [5]: 100%
- remaining binding at 1 µM [6]: 94%
